Data: ChEMBL document CHEMBL5214900, “Design, Synthesis, and Biological Evaluation of Membrane-Active Bakuchiol Derivatives as Effective Broad-Spectrum Antibacterial Agents” (J Med Chem, 2021)
Converted amounts (≈) assume the structure as drawn.

Columns and labels:
[1] = Toxicity in C57BL/6 mouse assessed as corneal damage at 0.8 mg/ml, TOP administered 4 times a day for 3 consecutive days; settings: in vivo, topical_or_ocular, 72 h, time 3 day
Pseudomonas aeruginosa = test: Antibacterial activity against Pseudomonas aeruginosa ATCC 9027 assessed as inhibition of bacterial growth incubated for 24 hrs by CLSI based broth dilution method; type: functional
Staphylococcus aureus [2] = test: Antibacterial activity against Staphylococcus aureus ATCC 29213 assessed as eradication of preformed bacterial biofilm by measuring residual biofilm viability at 6.25 ug/ml incubated for 24 hrs by crystal violet staining based assay relative to control; type: functional; settings: dose 6.25 µg/ml
Staphylococcus aureus [3] = test: Antibiofilm activity against Staphylococcus aureus ATCC 29213 assessed reduction in biofilm formation at 0.78 ug/ml measured after 24 hrs by crystal violet staining based assay relative to control; type: functional; set-up: scale not given: the % may be the effect or the level left; settings: dose 0.78 µg/ml
[4] = Cytotoxicity against HEK293 cells assessed as cell viability at 25 ug/ml incubated for 24 hrs by CCK-8 assay relative to control; type: toxicity, cell-based; settings: human, at 25 µg/mL, read-out: Activity
[5] = Cytotoxicity against mouse NCTC clone 929 cells assessed as cell viability at 3.125 ug/ml incubated for 24 hrs by CCK-8 assay relative to control; type: toxicity, cell-based; settings: at 3.125 µg/mL, read-out: Activity
[6] = Cytotoxicity against mouse NCTC clone 929 cells assessed as cell viability at 25 ug/ml incubated for 24 hrs by CCK-8 assay relative to control; type: toxicity, cell-based; settings: at 25 µg/mL, read-out: Activity
Escherichia coli [7] = test: Antibacterial activity against Escherichia coli ATCC 25922 assessed as fold increase in MIC incubated for 24 hrs in presence of 4.5 mM K+ by CLSI based broth dilution method; type: functional
Escherichia coli [8] = test: Antibacterial activity against Escherichia coli ATCC 25922 assessed as inhibition of bacterial growth incubated for 24 hrs by CLSI based broth dilution method; type: functional
Escherichia coli [9] = test: Antibacterial activity against Escherichia coli ATCC 25922 assessed as fold increase in MIC incubated for 24 hrs in presence of 2.5 mM Ca2+ by CLSI based broth dilution method; type: functional
Staphylococcus aureus [10] = test: Induction of cell death in Staphylococcus aureus ATCC 29213 assessed as residual living cells at 8 times MIC incubated for 2 hrs by SYTO 9/PI staining based fluorescence analysis relative to control; type: functional
Escherichia coli [11] = test: Antibacterial activity against Escherichia coli ATCC 25922 assessed as eradication of preformed bacterial biofilm by measuring residual biofilm viability at 0.78 ug/ml incubated for 24 hrs by crystal violet staining based assay relative to control; type: functional; settings: dose 0.78 µg/ml
[12] = Cytotoxicity against HEK293 cells assessed as cell viability at 50 ug/ml incubated for 24 hrs by CCK-8 assay relative to control; type: toxicity, cell-based; settings: human, at 50 µg/mL, read-out: Activity
[13] = Toxicity in C57BL/6 mouse assessed as signs of toxicity in cornea at 0.8 mg/ml, TOP administered 4 times a day for 3 consecutive days; settings: in vivo, topical_or_ocular, 72 h, time 3 day
Staphylococcus aureus [14] = test: Antibacterial activity against Staphylococcus aureus NCTC10442 assessed as fold increase in MIC incubated for 24 hrs in presence of 2.5 mM Ca2+ by CLSI based broth dilution method; type: functional
Cell membrane = test: Disruption of membrane integrity in Staphylococcus aureus ATCC 29213 assessed as increase in fluorescence intensity at 1 to 8 times MIC by SYTOX green dye based fluorescence analysis; settings: DDE = dose-dependent effect
Staphylococcus aureus [15] = test: Antibiofilm activity against Staphylococcus aureus ATCC 29213 assessed reduction in biofilm formation at 6.25 ug/ml measured after 24 hrs by crystal violet staining based assay relative to control; type: functional; set-up: scale not given: the % may be the effect or the level left; settings: dose 6.25 µg/ml
Acinetobacter baumannii = test: Antibacterial activity against Acinetobacter baumannii ATCC 17978 assessed as fold increase in MIC incubated for 24 hrs in presence of 1 mM Mg2+ by CLSI based broth dilution method; type: functional

For `C=C[C@@](C)(/C=C/c1ccc(OCCCCN(CCCN(C)C)CCCN(C)C)cc1)CCC=C(C)C`, the Activity [1] was “Non-Toxic”, the MIC (Pseudomonas aeruginosa) was 3.12 µg/mL (≈ 6.28 µM) and the Activity (Staphylococcus aureus [2]) was 34.11%. It also gave an Activity (Staphylococcus aureus [3]) of 12.91%, a viability at 24 h, 25 ug/ml [4] of 63.3% and a viability at 24 h, 3.125 ug/ml [5] of 88.9%. For the same molecule, the viability at 24 h, 25 ug/ml [6] was 74.1%, the “fold change (FC)” value (Escherichia coli [7]) was under 2 and the MIC (Escherichia coli [8]) was 3.12 µg/mL (≈ 6.28 µM). The “fold change (FC)” value (Escherichia coli [9]) was under 2, the Activity (Staphylococcus aureus [10]) was 2.2% and the Activity (Escherichia coli [11]) was 91.55%. The viability at 24 h, 50 ug/ml [12] was 14.4%, the Activity [13] was “Non-Toxic” and the “fold change (FC)” value (Staphylococcus aureus [14]) was under 2. The Activity (Cell membrane) was “Dde”, the Activity (Staphylococcus aureus [15]) was 98.78% and the “fold change (FC)” value (Acinetobacter baumannii) was under 2.
